Test results published in patent publication US20250319162A1, “METHODS AND MATERIALS FOR TREATING OBESITY” (Regents of the University of California, priority 2024, published 2025).

How the values were obtained:
[1] = system: Drp1 S637 phosphorylation in 3T3-L1 adipocytes; test: Immunoblot of phospho-Drp1 (S637) in 3T3-L1 adipocytes after forskolin; assay type: cell-based, murine; settings: pretreated with 50 μM RBC8 or DMSO for 30 min, then 5 μM forskolin
Text: Immunoblotting of phospho-Drp1 S637, total Drp1 and β-Tubulin in iWAT of HFD-fed Rala^f/f (n=10) and Rala^AKO (n=13) mice. FIGS. 12B and 12C: Immunoblotting (FIG. 12B) and quantification (FIG. 12C) of phospho-Drp1(S637), total Drp1, and β-Tubulin in eWAT of HFD-fed Rala^f/f (n=8) and Rala^AKO (n=12) mice. FIGS. 12D and 12E: Immunoblotting (FIG. 12D) and quantification (FIG. 12E) of phospho-Drp1(S637), total Drp1 and β-Actin in iWAT of CD-fed mice. Non-fasted Rala^f/f (vehicle n=3, CL n=4) and Rala^AKO (vehicle n=3, CL n=5) mice fed with CD were i.p. injected with 1 mg/kg CL for 30 min. P=0.0054, P=0.0135 (FIG. 12E). FIGS. 12F and 12G: Immunoblotting (FIG. 12F) and quantification (FIG. 12G) of phospho-Drp1(S637), total Drp1, RalA, and β-Actin in fully differentiated primary adipocytes (n=4 biological samples). P=0.0085, P=0.0046 (FIG. 12G). […] FIGS. 12H and 12I: Immunoblotting (FIG. 12H) and quantification (FIG. 12I) of phospho-Drp1(S637), total Drp1, RalA, and β-Actin in immortalized adipocytes (n=4 biological samples). […] FIGS. 12J and 12K: Immunoblotting (FIG. 12J) and quantification (FIG. 12K) of phospho-Drp1(S637), total Drp1, and β-Actin in 3T3-L1 adipocytes (n=4 biological samples). […] FIGS. 12M and 12N: Quantification of phospho-HSL (S660) and HSL in primary (FIG. 12M) and immortalized adipocytes (FIG. 12N) treated with CL for indicated time (n=4 biological samples). […]

[2] = system: Drp1 S637 phosphorylation in human primary adipocyte cell line SGBS; test: Immunoblot of phospho-Drp1 (S637) in human primary adipocytes (SGBS) after forskolin; assay type: cell-based; settings: SGBS cells; pretreated with 50 μM RBC8 or DMSO for 30 min, then 20 μM forskolin
Procedure: FIGS. 5A-5J. […] FIG. 5A: Quantification of phospho-Drp1 (S637) and total Drp1 in iWAT of HFD-fed Rala^f/f (n=10) and Rala^AKO (n=13) mice; P=0.0001. FIGS. 5B and 5C: Immunoblotting (FIG. 5B) and quantification (FIG. 5C) of phospho-Drp1 (S637) and total Drp1 in immortalized adipocytes (n=4 biological samples); P=0.0125 (FIG. 5C). Adipocytes were treated with 20 μM forskolin (Fsk) for indicated time. FIGS. 5D and 5E: Immunoblotting (FIG. 5D) and quantification of phospho-Drp1 (S637) and total Drp1 in human primary adipocytes (SGBS) (n=4 biological samples). […] Significance in correlation was assessed by Spearman's correlation test (FIGS. 5H, and 5J). […]
Tissues or cells were lysed or homogenized in RIPA buffer with freshly added Halt Protease and Phosphatase Inhibitor Cocktail (Thermo Fisher). […] Cleared supernatants were collected and concentrations were determined with a BCA protein assay kit (Pierce) and iTecan plate reader for quantification. […] Individual 10 proteins were detected with the specific antibodies (OXPHOS ab110413, β-tubulin 2146S, phospho-Drp1 (Ser637) 4867S, phospho-HSL (Ser660) 45804S, HSL 4107S, MYC 2276S, Drp1 8570S, phosphor-AMPK (Thr172) 2535S, AMPK 5831S, RalA BD610221, β-actin 66009-1-Ig, Flag 66008-4-Ig, GFP 66002-1-Ig, and Sec512751-1-AP). […] Bands were quantified with ImageStudio or ImageJ.

Which results are given for `COc1ccc(OC)c(C2C(C#N)=C(N)Oc3n[nH]c(-c4ccc5ccccc5c4)c32)c1` (centres unmarked) [RBC8]?
forskolin-stimulated Drp1 S637 phosphorylation [1]: significantly increased forskolin-stimulated Drp1 S637 phosphorylation; forskolin-stimulated Drp1 S637 phosphorylation [2]: increased forskolin-stimulated Drp1 S637 phosphorylation
